{
  "source": "PubChem BioAssay (NCI)",
  "assay_in_all_cases": "inhibition of tumour cell growth, NCI panel, 48 h",
  "key": {"786-0 renal": {"tested_on": "786-0 renal"}, "A498 renal": {"tested_on": "A498 renal"}, "A549 NSCLC": {"tested_on": "A549 NSCLC"}, "ACHN renal": {"tested_on": "ACHN renal"}, "BT-549 breast": {"tested_on": "BT-549 breast"}, "CAKI-1 renal": {"tested_on": "CAKI-1 renal"}, "CCRF-CEM leukemia": {"tested_on": "CCRF-CEM leukemia"}, "COLO 205 colon": {"tested_on": "COLO 205 colon"}, "DU-145 prostate": {"tested_on": "DU-145 prostate"}, "EKVX NSCLC": {"tested_on": "EKVX NSCLC"}, "HCT-116 colon": {"tested_on": "HCT-116 colon"}, "HCT-15 colon": {"tested_on": "HCT-15 colon"}, "HL-60(TB) leukemia": {"tested_on": "HL-60(TB) leukemia"}, "HOP-62 NSCLC": {"tested_on": "HOP-62 NSCLC"}, "HOP-92 NSCLC": {"tested_on": "HOP-92 NSCLC"}, "HS 578T breast": {"tested_on": "HS 578T breast"}, "HT29 colon": {"tested_on": "HT29 colon"}, "IGROV1 ovarian": {"tested_on": "IGROV1 ovarian"}, "K-562 leukemia": {"tested_on": "K-562 leukemia"}, "KM12 colon": {"tested_on": "KM12 colon"}, "LOX IMVI melanoma": {"tested_on": "LOX IMVI melanoma"}, "M14 melanoma": {"tested_on": "M14 melanoma"}, "MALME-3M melanoma": {"tested_on": "MALME-3M melanoma"}, "MCF7 breast": {"tested_on": "MCF7 breast"}, "MDA-MB-231 breast": {"tested_on": "MDA-MB-231 breast"}, "MDA-MB-435": {"tested_on": "MDA-MB-435"}, "MDA-N": {"tested_on": "MDA-N"}, "MOLT-4 leukemia": {"tested_on": "MOLT-4 leukemia"}, "NCI-H226 lung": {"tested_on": "NCI-H226 lung"}, "NCI-H23 lung": {"tested_on": "NCI-H23 lung"}, "NCI-H460 lung": {"tested_on": "NCI-H460 lung"}, "NCI-H522 lung": {"tested_on": "NCI-H522 lung"}, "NCI/ADR-RES ovarian": {"tested_on": "NCI/ADR-RES ovarian"}, "OVCAR-3 ovarian": {"tested_on": "OVCAR-3 ovarian"}, "OVCAR-5 ovarian": {"tested_on": "OVCAR-5 ovarian"}, "OVCAR-8 ovarian": {"tested_on": "OVCAR-8 ovarian"}, "PC-3 prostate": {"tested_on": "PC-3 prostate"}, "RPMI-8226 leukemia": {"tested_on": "RPMI-8226 leukemia"}, "RXF 393 renal": {"tested_on": "RXF 393 renal"}, "SF-268 CNS": {"tested_on": "SF-268 CNS"}, "SF-295 CNS": {"tested_on": "SF-295 CNS"}, "SF-539 CNS": {"tested_on": "SF-539 CNS"}, "SK-MEL-2 melanoma": {"tested_on": "SK-MEL-2 melanoma"}, "SK-MEL-5 melanoma": {"tested_on": "SK-MEL-5 melanoma"}, "SK-OV-3 ovarian": {"tested_on": "SK-OV-3 ovarian"}, "SN12C renal": {"tested_on": "SN12C renal"}, "SNB-19 CNS": {"tested_on": "SNB-19 CNS"}, "SR leukemia": {"tested_on": "SR leukemia"}, "SW-620 colon": {"tested_on": "SW-620 colon"}, "TK-10 renal": {"tested_on": "TK-10 renal"}, "U251 CNS": {"tested_on": "U251 CNS"}, "UACC-257 melanoma": {"tested_on": "UACC-257 melanoma"}, "UACC-62 melanoma": {"tested_on": "UACC-62 melanoma"}, "UO-31 renal": {"tested_on": "UO-31 renal"}},
  "note": "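A five-concentration, 48-hour dose response in 96-well plates underlies each endpoint, interpolated linearly between surrounding concentrations. Definition used: TGI = concentration required for complete inhibition of growth.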",
  "data": [
    {"smiles": "C=C(C1=CC(=O)C(C)(C)O1)[C@@H]1CC=C([C@@H]2CC[C@H]3[C@@]2(C)CC[C@H]2C(C)(C)C(=O)[C@H](OC(=O)CC(C)(O)CC(=O)O)C[C@]32C)[C@H](O)O1", "note": "(some centres undefined)", "values": [
      {"measurement": "TGI", "setting": "786-0 renal", "result": 24.4, "unit": "µM"},
      {"measurement": "TGI", "setting": "A498 renal", "result": 26, "unit": "µM"},
      {"measurement": "TGI", "setting": "A549 NSCLC", "result": 40.3, "unit": "µM"},
      {"measurement": "TGI", "setting": "ACHN renal", "result": 25.4, "unit": "µM"},
      {"measurement": "TGI", "setting": "BT-549 breast", "result": 13.4, "unit": "µM"},
      {"measurement": "TGI", "setting": "CAKI-1 renal", "result": 45.8, "unit": "µM"},
      {"measurement": "TGI", "setting": "CCRF-CEM leukemia", "result": 6.12, "unit": "µM"},
      {"measurement": "TGI", "setting": "COLO 205 colon", "result": 24.5, "unit": "µM"},
      {"measurement": "TGI", "setting": "DU-145 prostate", "result": 45.6, "unit": "µM"},
      {"measurement": "TGI", "setting": "EKVX NSCLC", "result": 29.8, "unit": "µM"},
      {"measurement": "TGI", "setting": "HCT-116 colon", "result": 24, "unit": "µM"},
      {"measurement": "TGI", "setting": "HCT-15 colon", "result": 24.9, "unit": "µM"},
      {"measurement": "TGI", "setting": "HL-60(TB) leukemia", "result": 38.4, "unit": "µM"},
      {"measurement": "TGI", "setting": "HOP-62 NSCLC", "result": 35, "unit": "µM"},
      {"measurement": "TGI", "setting": "HOP-92 NSCLC", "result": 24.7, "unit": "µM"},
      {"measurement": "TGI", "setting": "HS 578T breast", "result": 66.7, "unit": "µM"},
      {"measurement": "TGI", "setting": "HT29 colon", "result": 34.4, "unit": "µM"},
      {"measurement": "TGI", "setting": "IGROV1 ovarian", "result": 26.3, "unit": "µM"},
      {"measurement": "TGI", "setting": "K-562 leukemia", "result": "> 75", "unit": "µM"},
      {"measurement": "TGI", "setting": "KM12 colon", "result": 29.7, "unit": "µM"},
      {"measurement": "TGI", "setting": "LOX IMVI melanoma", "result": 25.9, "unit": "µM"},
      {"measurement": "TGI", "setting": "M14 melanoma", "result": 27, "unit": "µM"},
      {"measurement": "TGI", "setting": "MALME-3M melanoma", "result": 28, "unit": "µM"},
      {"measurement": "TGI", "setting": "MCF7 breast", "result": 20.9, "unit": "µM"},
      {"measurement": "TGI", "setting": "MDA-MB-231 breast", "result": 35.8, "unit": "µM"},
      {"measurement": "TGI", "setting": "MDA-MB-435", "result": 34.2, "unit": "µM"},
      {"measurement": "TGI", "setting": "MDA-N", "result": 30.5, "unit": "µM"},
      {"measurement": "TGI", "setting": "MOLT-4 leukemia", "result": 30.8, "unit": "µM"},
      {"measurement": "TGI", "setting": "NCI-H226 lung", "result": 31.3, "unit": "µM"},
      {"measurement": "TGI", "setting": "NCI-H23 lung", "result": 27.5, "unit": "µM"},
      {"measurement": "TGI", "setting": "NCI-H460 lung", "result": 40.7, "unit": "µM"},
      {"measurement": "TGI", "setting": "NCI-H522 lung", "result": 25.4, "unit": "µM"},
      {"measurement": "TGI", "setting": "NCI/ADR-RES ovarian", "result": 51.3, "unit": "µM"},
      {"measurement": "TGI", "setting": "OVCAR-3 ovarian", "result": 23.6, "unit": "µM"},
      {"measurement": "TGI", "setting": "OVCAR-5 ovarian", "result": 26.5, "unit": "µM"},
      {"measurement": "TGI", "setting": "OVCAR-8 ovarian", "result": 29.1, "unit": "µM"},
      {"measurement": "TGI", "setting": "PC-3 prostate", "result": 30.2, "unit": "µM"},
      {"measurement": "TGI", "setting": "RPMI-8226 leukemia", "result": 5.24, "unit": "µM"},
      {"measurement": "TGI", "setting": "RXF 393 renal", "result": 17, "unit": "µM"},
      {"measurement": "TGI", "setting": "SF-268 CNS", "result": 24.4, "unit": "µM"},
      {"measurement": "TGI", "setting": "SF-295 CNS", "result": "> 75", "unit": "µM"},
      {"measurement": "TGI", "setting": "SF-539 CNS", "result": 24.7, "unit": "µM"},
      {"measurement": "TGI", "setting": "SK-MEL-2 melanoma", "result": 26.7, "unit": "µM"},
      {"measurement": "TGI", "setting": "SK-MEL-5 melanoma", "result": 24.4, "unit": "µM"},
      {"measurement": "TGI", "setting": "SK-OV-3 ovarian", "result": 46.9, "unit": "µM"},
      {"measurement": "TGI", "setting": "SN12C renal", "result": 28, "unit": "µM"},
      {"measurement": "TGI", "setting": "SNB-19 CNS", "result": "> 75", "unit": "µM"},
      {"measurement": "TGI", "setting": "SR leukemia", "result": 49.2, "unit": "µM"},
      {"measurement": "TGI", "setting": "SW-620 colon", "result": 25.4, "unit": "µM"},
      {"measurement": "TGI", "setting": "TK-10 renal", "result": "> 75", "unit": "µM"},
      {"measurement": "TGI", "setting": "U251 CNS", "result": 25.2, "unit": "µM"},
      {"measurement": "TGI", "setting": "UACC-257 melanoma", "result": 35.6, "unit": "µM"},
      {"measurement": "TGI", "setting": "UACC-62 melanoma", "result": 23.5, "unit": "µM"},
      {"measurement": "TGI", "setting": "UO-31 renal", "result": 26.3, "unit": "µM"}
    ]}
  ]
}
